Test results reported in article PMC10408569, “Recruitment of hexahydroquinoline as anticancer scaffold targeting inhibition of wild and mutants EGFR (EGFR^WT, EGFR^T790M, and EGFR^L858R)” (Journal of Enzyme Inhibition and Medicinal Chemistry, 2023).

Experiments:
NCI 60 cancer cell lines = experiment: NCI-60 anticancer screening (SRB), whole panel; format: cell-based, human; conditions: mean across the NCI-60 panel; one dose 10 μM
SNB-75 = experiment: NCI-60 anticancer screening (SRB); format: cell-based; conditions: Homo sapiens; SNB-75, CNS cancer; one dose 10 μM; read-out: Growth Inhibition Percentage (GI %)
SR = experiment: NCI-60 anticancer screening (SRB); format: cell-based; conditions: Homo sapiens, leukemia, one dose 10 μM, read-out: Growth Inhibition Percentage (GI %)
ACHN = experiment: NCI-60 anticancer screening (SRB); format: cell-based; conditions: Homo sapiens, renal cancer, one dose 10 μM, read-out: Growth Inhibition Percentage (GI %)
OVCAR-3 = experiment: NCI-60 anticancer screening (SRB); format: cell-based; conditions: Homo sapiens; OVCAR-3, ovarian cancer; one dose 10 μM; read-out: Growth Inhibition Percentage (GI %)
SF-268 = experiment: NCI-60 anticancer screening (SRB); format: cell-based; conditions: Homo sapiens; SF-268, CNS cancer; one dose 10 μM; read-out: Growth Inhibition Percentage (GI %)
NCI-H522 = experiment: NCI-60 anticancer screening (SRB); format: cell-based; conditions: Homo sapiens; NCI-H522, NSC lung cancer; one dose 10 μM; read-out: Growth Inhibition Percentage (GI %)
NCI-H322M = experiment: NCI-60 anticancer screening (SRB); format: cell-based; conditions: Homo sapiens, NSC lung cancer, one dose 10 μM, read-out: Growth Inhibition Percentage (GI %)
RXF 393 = experiment: NCI-60 anticancer screening (SRB); format: cell-based; conditions: Homo sapiens; RXF 393, renal cancer; one dose 10 μM; read-out: Growth Inhibition Percentage (GI %)
MDA-MB-435 = experiment: NCI-60 anticancer screening (SRB); format: cell-based; conditions: Homo sapiens; MDA-MB-435, melanoma; one dose 10 μM; read-out: Growth Inhibition Percentage (GI %)
SNB-19 = experiment: NCI-60 anticancer screening (SRB); format: cell-based; conditions: Homo sapiens; SNB-19, CNS cancer; one dose 10 μM; read-out: Growth Inhibition Percentage (GI %)
NCI-H226 = experiment: NCI-60 anticancer screening (SRB); format: cell-based; conditions: Homo sapiens; NCI-H226, NSC lung cancer; one dose 10 μM; read-out: Growth Inhibition Percentage (GI %)
T-47D = experiment: NCI-60 anticancer screening (SRB); format: cell-based; conditions: Homo sapiens, T47D, breast cancer, one dose 10 μM, read-out: Growth Inhibition Percentage (GI %)
SW-620 = experiment: NCI-60 anticancer screening (SRB); format: cell-based; conditions: Homo sapiens; SW-620, colon cancer; one dose 10 μM; read-out: Growth Inhibition Percentage (GI %)
HL-60(TB) = experiment: NCI-60 anticancer screening (SRB); format: cell-based; conditions: Homo sapiens, leukemia, one dose 10 μM, read-out: Growth Inhibition Percentage (GI %)
SK-MEL-2 = experiment: NCI-60 anticancer screening (SRB); format: cell-based; conditions: Homo sapiens; SK-MEL-2, melanoma; one dose 10 μM; read-out: Growth Inhibition Percentage (GI %)
OVCAR-4 = experiment: NCI-60 anticancer screening (SRB); format: cell-based; conditions: Homo sapiens; OVCAR-4, ovarian cancer; one dose 10 μM; read-out: Growth Inhibition Percentage (GI %)
SK-OV-3 = experiment: NCI-60 anticancer screening (SRB); format: cell-based; conditions: Homo sapiens; SK-OV-3, ovarian cancer; one dose 10 μM; read-out: Growth Inhibition Percentage (GI %)
KM 12 = experiment: NCI-60 anticancer screening (SRB); format: cell-based; conditions: Homo sapiens, KM12; KM 12, colon cancer; one dose 10 μM; read-out: Growth Inhibition Percentage (GI %)
K-562 = experiment: NCI-60 anticancer screening (SRB); format: cell-based; conditions: Homo sapiens, K562; K-562, leukemia; one dose 10 μM; read-out: Growth Inhibition Percentage (GI %)
A549/ATCC = experiment: NCI-60 anticancer screening (SRB); format: cell-based; conditions: Homo sapiens; A549/ATCC, NSC lung cancer; one dose 10 μM; read-out: Growth Inhibition Percentage (GI %)
SK-MEL-5 = experiment: NCI-60 anticancer screening (SRB); format: cell-based; conditions: Homo sapiens; SK-MEL-5, melanoma; one dose 10 μM; read-out: Growth Inhibition Percentage (GI %)
HOP-62 = experiment: NCI-60 anticancer screening (SRB); format: cell-based; conditions: Homo sapiens; HOP-62, NSC lung cancer; one dose 10 μM; read-out: Growth Inhibition Percentage (GI %)
HCT-15 = experiment: NCI-60 anticancer screening (SRB); format: cell-based; conditions: Homo sapiens; HCT-15, colon cancer; one dose 10 μM; read-out: Growth Inhibition Percentage (GI %)
RPMI-8226 = experiment: NCI-60 anticancer screening (SRB); format: cell-based; conditions: Homo sapiens; RPMI-8226, leukemia; one dose 10 μM; read-out: Growth Inhibition Percentage (GI %)
MDA-MB-468 = experiment: NCI-60 anticancer screening (SRB); format: cell-based; conditions: Homo sapiens; MDA-MB-468, breast cancer; one dose 10 μM; read-out: Growth Inhibition Percentage (GI %)
MOLT-4 = experiment: NCI-60 anticancer screening (SRB); format: cell-based; conditions: Homo sapiens; MOLT-4, leukemia; one dose 10 μM; read-out: Growth Inhibition Percentage (GI %)
OVCAR-8 = experiment: NCI-60 anticancer screening (SRB); format: cell-based; conditions: Homo sapiens; OVCAR-8, ovarian cancer; one dose 10 μM; read-out: Growth Inhibition Percentage (GI %)
LOX IMVI = experiment: NCI-60 anticancer screening (SRB); format: cell-based; conditions: Homo sapiens, melanoma, one dose 10 μM, read-out: Growth Inhibition Percentage (GI %)
UACC-257 = experiment: NCI-60 anticancer screening (SRB); format: cell-based; conditions: Homo sapiens; UACC-257, melanoma; one dose 10 μM; read-out: Growth Inhibition Percentage (GI %)
HCC-2998 = experiment: NCI-60 anticancer screening (SRB); format: cell-based; conditions: Homo sapiens; HCC-2998, colon cancer; one dose 10 μM; read-out: Growth Inhibition Percentage (GI %)
OVCAR-5 = experiment: NCI-60 anticancer screening (SRB); format: cell-based; conditions: Homo sapiens; OVCAR-5, ovarian cancer; one dose 10 μM; read-out: Growth Inhibition Percentage (GI %)

| SMILES | GI % mean (NCI 60 cancer cell lines) | inhibition at 10 µM (SNB-75) [%] | inhibition at 10 µM (SR) [%] | inhibition at 10 µM (ACHN) [%] | inhibition at 10 µM (OVCAR-3) [%] | inhibition at 10 µM (SF-268) [%] | inhibition at 10 µM (NCI-H522) [%] | inhibition at 10 µM (NCI-H322M) [%] | inhibition at 10 µM (RXF 393) [%] | inhibition at 10 µM (MDA-MB-435) [%] | inhibition at 10 µM (SNB-19) [%] | inhibition at 10 µM (NCI-H226) [%] | inhibition at 10 µM (T-47D) [%] | inhibition at 10 µM (SW-620) [%] | inhibition at 10 µM (HL-60(TB)) [%] | inhibition at 10 µM (SK-MEL-2) [%] | inhibition at 10 µM (OVCAR-4) [%] | inhibition at 10 µM (SK-OV-3) [%] | melting point [°C] | inhibition at 10 µM (KM 12) [%] | other results |
| --- | --- | --- | --- | --- | --- | --- | --- | --- | --- | --- | --- | --- | --- | --- | --- | --- | --- | --- | --- | --- | --- |
| CCOC(=O)C1=C(N)N(c2ccc(Cl)cc2)C2=C(C(=O)CC(C)(C)C2)C1c1ccccc1Br (racemic) [6f, (±)-Ethyl 2-amino-4–(2-bromophenyl)-1–(4-chlorophenyl)-7,7-dimethyl-5-oxo-1,4,5,6,7,8-hexahydroquinoline-3-carboxylate] | 24% | 16 | < 10 | 20 | 31 | 17 | 43 | < 10 | < 10 | < 10 | 11 | 14 | 49 | 38 | 68 | < 10 | 25 | < 10 | 210 to 212 | 40 | inhibition at 10 µM (K-562): < 10%; inhibition at 10 µM (A549/ATCC): 31%; inhibition at 10 µM (SK-MEL-5): 79%; inhibition at 10 µM (HOP-62): < 10%; inhibition at 10 µM (HCT-15): 53%; inhibition at 10 µM (RPMI-8226): < 10%; inhibition at 10 µM (MDA-MB-468): 53%; inhibition at 10 µM (MOLT-4): < 10%; inhibition at 10 µM (OVCAR-8): 14%; inhibition at 10 µM (LOX IMVI): < 10%; inhibition at 10 µM (UACC-257): 42%; inhibition at 10 µM (HCC-2998): < 10%; inhibition at 10 µM (OVCAR-5): < 10% |
| CCOC(=O)C1=C(N)N(c2ccc(Cl)cc2)C2=C(C(=O)CC(C)(C)C2)C1c1ccccc1Cl (racemic) [6c, (±)-Ethyl 2-amino-4–(2-chlorophenyl)-1–(4-chlorophenyl)-7,7-dimethyl-5-oxo-1,4,5,6,7,8-hexahydroquinoline-3-carboxylate] | 34% | 17 | < 10 | 40 | 44 | 23 | 63 | < 10 | < 10 | 29 | 27 | 25 | 67 | 48 | 75 | 24 | 32 | 29 | 179 to 181 | 44 | inhibition at 10 µM (K-562): < 10%; inhibition at 10 µM (A549/ATCC): 51%; inhibition at 10 µM (SK-MEL-5): 66%; inhibition at 10 µM (HOP-62): 19%; inhibition at 10 µM (HCT-15): 62%; inhibition at 10 µM (RPMI-8226): < 10%; inhibition at 10 µM (MDA-MB-468): 60%; inhibition at 10 µM (MOLT-4): < 10%; inhibition at 10 µM (OVCAR-8): 30%; inhibition at 10 µM (LOX IMVI): 18%; inhibition at 10 µM (UACC-257): 50%; inhibition at 10 µM (HCC-2998): 24%; inhibition at 10 µM (OVCAR-5): < 10% |
| CCOC(=O)C1=C(N)N(c2ccc(Cl)cc2)C2=C(C(=O)CC(C)(C)C2)C1c1ccc([N+](=O)[O-])cc1 (racemic) [8k, (±)-Ethyl2-amino-1–(4-chlorophenyl)-7,7-dimethyl-4–(4-nitrophenyl)-5-oxo-1,4,5,6,7,8-hexahydroquinoline-3-carboxylate] | - ((-) = GI % mean less than 10) | < 10 | 32 | 12 | < 10 | < 10 | 27 | < 10 | < 10 | < 10 | < 10 | 15 | 27 | < 10 | 22 | 19 | < 10 | < 10 | 198 to 200 | 12 | inhibition at 10 µM (K-562): 26%; inhibition at 10 µM (A549/ATCC): 11%; inhibition at 10 µM (SK-MEL-5): < 10%; inhibition at 10 µM (HOP-62): < 10%; inhibition at 10 µM (HCT-15): 18%; inhibition at 10 µM (RPMI-8226): 43%; inhibition at 10 µM (MDA-MB-468): 18%; inhibition at 10 µM (MOLT-4): 27%; inhibition at 10 µM (OVCAR-8): 12%; inhibition at 10 µM (LOX IMVI): 21%; inhibition at 10 µM (UACC-257): < 10%; inhibition at 10 µM (HCC-2998): < 10%; inhibition at 10 µM (OVCAR-5): < 10% |
